Experimental data reported in US20230219963A1, “PYRROLO[2,3-D]PYRIMIDINE DERIVATIVES” (Pfizer Inc., priority 2020, published 2023).

Experiments:
Assay type in all cases: cell-based
IL-4 induced pSTAT6 = experiment: IL-4-induced pSTAT6 in human keratinocytes; conditions: Keratinocyte, JAK1/JAK2, read-out: IL-4 induced pSTAT6, cellular potency IC50
Method: (§1) Human whole blood was collected from healthy donors via vein puncture into Vacutainer collection tubes containing sodium heparin in accordance with Pfizer protocols (Protocol No. GOHW RDP-01) approved by the Shulman Institutional Review Board. Blood was warmed to 37° C. priorto use. Human whole blood was aliquoted (90 μL/well) in 96-well, deep-well, V-bottom plates and treated with compounds (5 μL/well) at different concentrations up to 60 μM (0.2% DMSO final) at 37° C. for 60 minutes. This was followed by a challenge with IFNα (5000 U/mL), IFNγ (100 ng/mL), IL-6 (50 ng/mL), IL-10 (30 ng/mL), IL-12 (30 ng/mL), IL-15 (30 ng/mL), IL-21 (50 ng/mL), IL-23 (25 ng/mL), IL-27 (1000 ng/mL), EPO (2 U/mL), TSLP (50 ng/mL) or PBS and incubated for 15 minutes. Anti-cell surface antibodies were added 15 minutes prior to cytokine stimulation; anti-CD3-BV421 (0.5 μL/well) to IL-6-treated and TSLP-treated samples and anti-CD14-BV421 (0.5 μL/well) to IFNγ-treated samples. Samples were treated with warm 1×Lyse/Fix buffer (700 μL/well) to terminate activation and further incubated at 37° C. for 20 minutes to lyse red blood cells. Plates were centrifuged at 300×g for 5 minutes, supernatant was aspirated, and cells were washed with 800 μL/well of staining buffer (D-PBS containing 0.1% FBS and 0.01% sodium azide). Washed cell pellets were resuspended in 350 μL/well of prechilled 90% methanol and incubated at 4° C. for 30 minutes. After the removal of 90% methanol, cells were washed once with staining buffer. […]
(§2) After overnight incubation at 4° C., anti-pSTAT stained samples were transferred into 96-well polypropylene U-bottom plates and flow cytometric analysis was performed on a LSR Fortessa™ equipped with a HTS plate loader. […] Background fluorescence was defined using unstimulated cells and a gate was placed at the foot of the peak to include ˜0.5% gated population. […]

IL-23 induced pSTAT3 = experiment: IL-23-induced pSTAT3 in human whole blood (lymphocytes); conditions: Lymphocyte, JAK2/TYK2, read-out: IL-23 induced pSTAT3, cellular potency IC50
Method: as §1, with “buffer. All samples were finally suspended in 150 μL/well of the desired anti-phospho-STAT antibodies at 1:150 dilution in staining buffer; anti-pSTAT1-AF647 in IFNγ treated samples; anti-pSTAT1-AF488 and anti-pSTAT3-AF647 in IL-6-treated samples, anti-pSTAT3-AF647 in IFNα, IL-10, IL-21, IL-23 and IL-27 treated samples, anti-pSTAT4-AF647 in IL-12 treated samples, anti-pSTAT5-AF-647 in EPO, IL-15 and TSLP-treated samples. Human primary keratinocytes were cultured in DermaLife™ medium with supplement kit to expand cell population. Cell passages 2 to 5 were used in the assays. Cells were harvested at ˜80% confluence, suspended in warm DermaLife™ medium, aliquoted (90 μL/well) in 96-well, deep-well, V-bottom plates, and incubated at 37° C. for 30 minutes. Cells were then treated with compounds (0.0003 to 20 μM) for 60 minutes and followed by stimulation with IL-4 (2 ng/mL) or IL-13 (20 ng/mL) at 37° C. for 15 minutes.” for “buffer.”
as §2

IL-22 induced pSTAT3 = experiment: IL-22-induced pSTAT3 in human keratinocytes; conditions: Keratinocyte, JAK1/TYK2, read-out: IL-22 induced pSTAT3, cellular potency IC50
IFNg induced pSTATI = experiment: IFNγ-induced pSTAT1 in human whole blood (CD14+ cells); conditions: JAK1/JAK2, read-out: IFNg induced pSTATI, cellular potency IC50
Method: as §1, with “buffer. All samples were finally suspended in 150 μL/well of the desired anti-phospho-STAT antibodies at 1:150 dilution in staining buffer; anti-pSTAT1-AF647 in IFNγ treated samples; anti-pSTAT1-AF488 and anti-pSTAT3-AF647 in IL-6-treated samples, anti-pSTAT3-AF647 in IFNα, IL-10, IL-21, IL-23 and IL-27 treated samples, anti-pSTAT4-AF647 in IL-12 treated samples, anti-pSTAT5-AF-647 in EPO, IL-15 and TSLP-treated samples. Human primary keratinocytes were cultured in DermaLife™ medium with supplement kit to expand cell population. Cell passages 2 to 5 were used in the assays. Cells were harvested at ˜80% confluence, suspended in warm DermaLife™ medium, aliquoted (90 μL/well) in 96-well, deep-well, V-bottom plates, and incubated at 37° C. for 30 minutes. Cells were then treated with compounds (0.0003 to 20 μM) for 60 minutes and followed by stimulation with IL-4 (2 ng/mL) or IL-13 (20 ng/mL) at 37° C. for 15 minutes.” for “buffer.”
as §2

IL-10 induced pSTAT3 = experiment: IL-10-induced pSTAT3 in human whole blood (lymphocytes); conditions: Lymphocyte, JAK1/TYK2, read-out: IL-10 induced pSTAT3, cellular potency IC50
Method: as §1, with “buffer. All samples were finally suspended in 150 μL/well of the desired anti-phospho-STAT antibodies at 1:150 dilution in staining buffer; anti-pSTAT1-AF647 in IFNγ treated samples; anti-pSTAT1-AF488 and anti-pSTAT3-AF647 in IL-6-treated samples, anti-pSTAT3-AF647 in IFNα, IL-10, IL-21, IL-23 and IL-27 treated samples, anti-pSTAT4-AF647 in IL-12 treated samples, anti-pSTAT5-AF-647 in EPO, IL-15 and TSLP-treated samples. Human primary keratinocytes were cultured in DermaLife™ medium with supplement kit to expand cell population. Cell passages 2 to 5 were used in the assays. Cells were harvested at ˜80% confluence, suspended in warm DermaLife™ medium, aliquoted (90 μL/well) in 96-well, deep-well, V-bottom plates, and incubated at 37° C. for 30 minutes. Cells were then treated with compounds (0.0003 to 20 μM) for 60 minutes and followed by stimulation with IL-4 (2 ng/mL) or IL-13 (20 ng/mL) at 37° C. for 15 minutes.” for “buffer.”
as §2

IL-21 induced pSTAT3 = experiment: IL-21-induced pSTAT3 in human whole blood (lymphocytes); conditions: Lymphocyte, JAK1/JAK3, read-out: IL-21 induced pSTAT3, cellular potency IC50
Method: as §1, with “buffer. All samples were finally suspended in 150 μL/well of the desired anti-phospho-STAT antibodies at 1:150 dilution in staining buffer; anti-pSTAT1-AF647 in IFNγ treated samples; anti-pSTAT1-AF488 and anti-pSTAT3-AF647 in IL-6-treated samples, anti-pSTAT3-AF647 in IFNα, IL-10, IL-21, IL-23 and IL-27 treated samples, anti-pSTAT4-AF647 in IL-12 treated samples, anti-pSTAT5-AF-647 in EPO, IL-15 and TSLP-treated samples. Human primary keratinocytes were cultured in DermaLife™ medium with supplement kit to expand cell population. Cell passages 2 to 5 were used in the assays. Cells were harvested at ˜80% confluence, suspended in warm DermaLife™ medium, aliquoted (90 μL/well) in 96-well, deep-well, V-bottom plates, and incubated at 37° C. for 30 minutes. Cells were then treated with compounds (0.0003 to 20 μM) for 60 minutes and followed by stimulation with IL-4 (2 ng/mL) or IL-13 (20 ng/mL) at 37° C. for 15 minutes.” for “buffer.”
as §2

EPO induced pSTAT5 = experiment: EPO-induced pSTAT5 in human whole blood (all events); conditions: JAK2/JAK2, read-out: EPO induced pSTAT5, cellular potency IC50
Method: as §1, with “buffer. All samples were finally suspended in 150 μL/well of the desired anti-phospho-STAT antibodies at 1:150 dilution in staining buffer; anti-pSTAT1-AF647 in IFNγ treated samples; anti-pSTAT1-AF488 and anti-pSTAT3-AF647 in IL-6-treated samples, anti-pSTAT3-AF647 in IFNα, IL-10, IL-21, IL-23 and IL-27 treated samples, anti-pSTAT4-AF647 in IL-12 treated samples, anti-pSTAT5-AF-647 in EPO, IL-15 and TSLP-treated samples. Human primary keratinocytes were cultured in DermaLife™ medium with supplement kit to expand cell population. Cell passages 2 to 5 were used in the assays. Cells were harvested at ˜80% confluence, suspended in warm DermaLife™ medium, aliquoted (90 μL/well) in 96-well, deep-well, V-bottom plates, and incubated at 37° C. for 30 minutes. Cells were then treated with compounds (0.0003 to 20 μM) for 60 minutes and followed by stimulation with IL-4 (2 ng/mL) or IL-13 (20 ng/mL) at 37° C. for 15 minutes.” for “buffer.”
as §2

- IC50 (IL-4 induced pSTAT6): 77 nM
- IC50 (IL-23 induced pSTAT3): > 16500 nM
- IC50 (IL-22 induced pSTAT3): 420 nM
- IC50 (IFNg induced pSTATI): 1690 nM
- IC50 (IL-10 induced pSTAT3): 3700 nM
- IC50 (IL-21 induced pSTAT3): 516 nM
- IC50 (EPO induced pSTAT5): 7180 nM
Structure (SMILES): CCCS(=O)(=O)N[C@H]1C[C@@H](N(C)c2ncnc3[nH]ccc23)C1 [Abrocitinib, N-((1S,3S)-3-(Methyl(7H-pyrrolo[2,3-d]pyrimidin-4-yl)amino)cyclo-butyl)propane-1-sulfonamide, reference compound]
